The target of assay [1] is Ras GEF SOS (Son of Sevenless) (Homo sapiens, UniProt Q07889). Put plainly: SOS-mediated nucleotide exchange on Ras (BODIPY-GDP fluorescence). The format is biochemical. As to conditions: SOS-mediated exchange of BODIPY-GDP for GTP on Ras. The method in brief: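 Exchange rates were taken from single-exponential fits of the fluorescence time course as BODIPY-GDP on Ras was replaced by GTP. Compound went in first, then GTP and SOS. Mean rates plotted against concentration gave EC50 by four-parameter dose-response fitting.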
Ras GEF SOS (Son of Sevenless), sequence (P01112 1-166 partner limits assumed, one chain of several): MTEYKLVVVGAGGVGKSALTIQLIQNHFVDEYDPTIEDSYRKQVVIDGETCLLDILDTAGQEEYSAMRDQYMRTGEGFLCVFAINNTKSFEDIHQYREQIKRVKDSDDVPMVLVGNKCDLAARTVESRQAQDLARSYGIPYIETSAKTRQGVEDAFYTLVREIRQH

The target in assay [2] is T1, Son of Sevenless (SOS) (Homo sapiens, UniProt Q07889).
T1 sequence (Q07889 564-1049 limits assumed): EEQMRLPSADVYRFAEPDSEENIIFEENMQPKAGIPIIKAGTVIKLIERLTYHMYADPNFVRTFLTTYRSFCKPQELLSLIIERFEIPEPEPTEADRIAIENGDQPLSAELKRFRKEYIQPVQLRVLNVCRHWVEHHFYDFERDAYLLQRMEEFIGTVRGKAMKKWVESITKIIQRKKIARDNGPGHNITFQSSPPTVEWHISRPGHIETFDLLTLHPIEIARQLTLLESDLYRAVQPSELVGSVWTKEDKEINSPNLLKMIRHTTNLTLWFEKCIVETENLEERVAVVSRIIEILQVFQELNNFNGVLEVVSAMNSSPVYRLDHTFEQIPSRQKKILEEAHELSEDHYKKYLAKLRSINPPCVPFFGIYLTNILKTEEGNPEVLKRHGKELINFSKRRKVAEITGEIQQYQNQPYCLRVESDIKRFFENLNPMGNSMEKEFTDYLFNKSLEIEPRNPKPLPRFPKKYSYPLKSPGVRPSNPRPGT
As to the kind of experiment: Binding to SOS, fluorescence polarization anisotropy (FPA) probe displacement. The settings on record: displacement of FITC-conjugated probe (Example 285), affinity calculated from IC50. The method in brief: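 Test compounds were titrated against SOS pre-bound to a fluorescein-labelled probe, with anisotropy plotted versus compound concentration. Binding affinities were derived from IC50 values obtained by four-parameter dose-response fitting.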

For orientation: EC50 means the midpoint of the concentration-response curve. The term Ki denotes the dissociation constant of the complex between target and ligand, obtained from inhibition or displacement. As to `OCc1cc(Cl)cc2c1nc(N1CCNCC1)n2Cc1ccc(F)c(Cl)c1` [Example 278, [6-chloro-1-[(3-chloro-4-fluorophenyl)methyl]-2-piperazin-1-ylbenzimidazol-4-yl]methanol], the EC50 in assay [1] is < 1 µM. Besides, the Ki in assay [2] was 1 to 5 µM.
For `Cc1cc(Cn2c(N3CCNCC3)nc3c(-n4ccc(N)c4)cc(Cl)cc32)cc(C)c1F` [Example 279, 1-[6-chloro-1-[(4-fluoro-3,5-dimethylphenyl)methyl]-2-piperazin-1-ylbenzimidazol-4-yl]pyrrol-3-amine], in that order: 1 to 5 µM and < 0.5 µM.
`Cc1cc(CO)c2nc(N3CCNCC3)n(Cc3cc(C)c(F)c(C)c3)c2c1` [Example 280, [1-[(4-fluoro-3,5-dimethylphenyl)methyl]-6-methyl-2-piperazin-1-ylbenzimidazol-4-yl]methanol]: the EC50 in assay [1] was < 1 µM. In assay [2], the Ki is 1 to 5 µM.
For `Cc1cc(Cn2c(N3CCNCC3)nc3c(C(N)C(=O)O)cc(Cl)cc32)cc(C)c1F` (centres unmarked) [Example 282, 2-amino-2-[6-chloro-1-[(4-fluoro-3,5-dimethylphenyl)methyl]-2-piperazin-1-ylbenzimidazol-4-yl]acetic acid], in that order: 1 to 5 µM and 0.5 to 1 µM.
`NC(CO)c1cc(Cl)cc2c1nc(N1CCNCC1)n2Cc1ccc(F)c(Cl)c1` (centres unmarked) [Example 283, 2-amino-2-[6-chloro-1-[(3-chloro-4-fluorophenyl)methyl]-2-piperazin-1-ylbenzimidazol-4-yl]ethanol] gave an EC50 in assay [1] of 5 to 30 µM. The Ki in assay [2] was > 5 µM.
For `Cc1cc2nc(N3CC(CN)C3)n(Cc3ccc(F)c(Cl)c3)c2cc1C` [Example 288, (1-(1-(3-chloro-4-fluorobenzyl)-5,6-dimethyl-1H-benzo[d]imidazol-2-yl)azetidin-3-yl)methanamine], in that order: < 1 µM and 1 to 5 µM.
In assay [1], `Cc1cc2nc(N3CCCC(N)C3)n(Cc3ccc(F)c(Cl)c3)c2cc1C` (centres unmarked) [Example 290, 1-(1-(3-chloro-4-fluorobenzyl)-5,6-dimethyl-1H-benzo[d]imidazol-2-yl)piperidin-3-amine] showed an EC50 of 1 to 5 µM. Further, in assay [2], the Ki was 1 to 5 µM.
For the molecule `Cc1cc2nc(NCC3CNC3)n(Cc3ccc(F)c(Cl)c3)c2cc1C` [Example 291, N-(azetidin-3-ylmethyl)-1-(3-chloro-4-fluorobenzyl)-5,6-dimethyl-1H-benzo[d]imidazol-2-amine], in assay [1], the EC50 was < 1 µM. The Ki in assay [2] is 1 to 5 µM.
For `Cc1cc2nc(N[C@H]3C[C@@H](N)C3)n(Cc3ccc(F)c(Cl)c3)c2cc1C` [Example 292, (1s,3s)-N^1-(1-(3-chloro-4-fluorobenzyl)-5,6-dimethyl-1H-benzo[d]imidazol-2-yl)cyclobutane-1,3-diamine], in that order: 1 to 5 µM and 1 to 5 µM.
For `Cc1cc2nc(NC3CCNC3)n(Cc3ccc(F)c(Cl)c3)c2cc1C` (centres unmarked) [Example 293, 1-(3-chloro-4-fluorobenzyl)-5,6-dimethyl-N-(pyrrolidin-3-yl)-1H-benzo[d]imidazol-2-amine], in that order: 1 to 5 µM and 1 to 5 µM.
`Cc1cc2nc(N3CCC(N)CC3)n(Cc3ccc(F)c(Cl)c3)c2cc1C` [Example 294, 1-(1-(3-chloro-4-fluorobenzyl)-5,6-dimethyl-1-benzo[d]imidazol-2-yl)piperidin-4-amine] had an EC50 in assay [1] of 5 to 30 µM. For the same molecule, the inhibition constant (Ki) in assay [2] was > 5 µM.
For `Cc1cc(Cn2c(N3CCNCC3)nc3c(N(C)C)cc(Cl)cc32)cc(C)c1F` [Example 296, 6-chloro-1-(4-fluoro-3,5-dimethylbenzyl)-N,N-dimethyl-2-(piperazin-1-yl)-1H-benzo[d]imidazol-4-amine], in that order: 1 to 5 µM and < 0.5 µM.
For `Cc1cc(Cn2c(N3CCNCC3)nc3c(N4CCCCC4)cc(Cl)cc32)cc(C)c1F` [Example 297, 6-chloro-1-(4-fluoro-3,5-dimethylbenzyl)-2-(piperazin-1-yl)-4-(piperidin-1-yl)-1H-benzo[d]imidazole], in that order: 1 to 5 µM and < 0.5 µM.

Values taken from US10501421B1, “Substituted benzimidazoles as modulators of Ras signaling” (VANDERBILT UNIVERSITY, priority 2017, dated 2019).
